Test results: ChEMBL document CHEMBL5584329, “Development of new dehydrocostuslactone derivatives for treatment of atopic dermatitis via inhibition of the NF-κB signaling pathway” (RSC Med Chem, 2024)
Blank lines part the entries; values can stand above or below the molecule they belong to. Active and inactive are the calls of the source. The rule behind the calls is not given here.

What was measured:
[1] = tested on: RAW264.7; test: Inhibition of LPS-induced NO production in mouse RAW264.7 cells at 20 uM preincubated for 2 hrs followed by LPS addition and measured after 24 hrs by Griess assay relative to control; assay type: functional; conditions: time 26 hrs
[2] = Cytotoxicity against mouse RAW264.7 cells assessed as inhibition of cell viability at 20 uM by MTT assay relative to control; assay type: toxicity, cell-based; conditions: read-out: INH
[3] = tested on: RAW264.7; test: Inhibition of LPS-induced NO production in mouse RAW264.7 cells preincubated for 2 hrs followed by LPS addition and measured after 24 hrs by Griess assay relative to control; assay type: functional, cell-based
[4] = Cytotoxicity against mouse RAW264.7 cells assessed as inhibition of cell viability by MTT assay relative to control; assay type: toxicity, cell-based
[5] = biological target: MAP kinase p38 (Mus musculus) (UniProt P47811+O08911+Q9WUI1+Q9Z1B7); test: Inhibition of P38 phosphorylation in LPS-induced mouse RAW264.7 cells preincubated for 2 hrs followed by LPS addition and measured after 24 hrs by Western blot analysis; assay type: cell-based; conditions: dose 2.5-10 µmol, time 26.0 hrs
[6] = biological target: T1, Inhibitor of nuclear factor kappa-B kinase subunit alpha (Mus musculus) (UniProt Q60680); test: Inhibition of IkappaB-alpha phosphorylation in LPS induced mouse RAW264.7 cells preincubated for 2 hrs followed by LPS addition and measured after 24 hrs by Western blot analysis; assay type: cell-based; conditions: dose 2.5-10 µmol, time 26.0 hrs
T1 sequence (whole entry): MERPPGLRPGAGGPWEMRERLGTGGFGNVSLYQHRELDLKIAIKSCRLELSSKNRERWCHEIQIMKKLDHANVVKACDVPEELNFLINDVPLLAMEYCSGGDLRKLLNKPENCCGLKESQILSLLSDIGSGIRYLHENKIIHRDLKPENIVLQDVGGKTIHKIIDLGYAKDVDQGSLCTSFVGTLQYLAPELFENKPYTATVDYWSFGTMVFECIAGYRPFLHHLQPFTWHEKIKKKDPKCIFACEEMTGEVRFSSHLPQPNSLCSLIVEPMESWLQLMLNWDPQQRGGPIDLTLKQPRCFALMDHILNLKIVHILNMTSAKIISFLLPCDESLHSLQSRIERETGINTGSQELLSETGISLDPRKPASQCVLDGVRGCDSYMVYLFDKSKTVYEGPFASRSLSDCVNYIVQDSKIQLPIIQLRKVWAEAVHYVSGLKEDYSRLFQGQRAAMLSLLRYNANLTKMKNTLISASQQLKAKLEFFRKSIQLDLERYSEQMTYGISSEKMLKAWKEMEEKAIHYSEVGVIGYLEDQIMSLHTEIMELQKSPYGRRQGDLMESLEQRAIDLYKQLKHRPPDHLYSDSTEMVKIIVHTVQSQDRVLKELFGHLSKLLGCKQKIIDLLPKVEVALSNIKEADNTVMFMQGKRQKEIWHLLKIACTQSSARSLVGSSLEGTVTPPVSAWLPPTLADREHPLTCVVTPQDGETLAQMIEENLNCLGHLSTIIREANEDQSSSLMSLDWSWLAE

[7] = biological target: Transcription factor p65 (Mus musculus) (UniProt Q04207); test: Inhibition of P65 phosphorylation in LPS induced mouse RAW264.7 cells preincubated for 2 hrs followed by LPS addition and measured after 24 hrs by Western blot analysis; assay type: cell-based; conditions: dose 2.5-10 µmol, time 26.0 hrs
Sequence of Transcription factor p65 (Mus musculus) (Q04207 whole entry): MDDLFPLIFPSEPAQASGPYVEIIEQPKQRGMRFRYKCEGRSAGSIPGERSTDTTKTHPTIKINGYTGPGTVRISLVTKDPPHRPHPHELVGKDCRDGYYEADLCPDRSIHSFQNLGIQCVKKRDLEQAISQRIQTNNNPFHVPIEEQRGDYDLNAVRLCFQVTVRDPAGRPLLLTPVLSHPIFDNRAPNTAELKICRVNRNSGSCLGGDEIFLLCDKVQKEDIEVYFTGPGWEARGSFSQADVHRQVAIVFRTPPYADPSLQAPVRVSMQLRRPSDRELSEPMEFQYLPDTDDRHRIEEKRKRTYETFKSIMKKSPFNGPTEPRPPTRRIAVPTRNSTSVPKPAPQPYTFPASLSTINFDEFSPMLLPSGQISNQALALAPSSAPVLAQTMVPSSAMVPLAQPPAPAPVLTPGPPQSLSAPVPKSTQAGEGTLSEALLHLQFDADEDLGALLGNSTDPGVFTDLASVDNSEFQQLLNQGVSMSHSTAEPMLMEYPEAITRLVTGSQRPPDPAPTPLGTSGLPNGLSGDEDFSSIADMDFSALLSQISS

[8] = tested on: Mus musculus; test: Antiinflammatory activity against MC093-induced atopic dermatitis BALB/c mouse model assessed as reduction in epidermal thickness of ear at 50 to 100 mg/kg, IG administered starting from day 4 to 10 after MC093-stimulation by H and E staining assay; assay type: functional, organism-based; conditions: dose 50-100 mg/kg, time 7.0 day
[9] = tested on: Mus musculus; test: Antiinflammatory activity against MC093-induced atopic dermatitis BALB/c mouse model assessed as reduction in inflammatory cell infiltration in ear at 50 to 100 mg/kg, IG administered starting from day 4 to 10 after MC093-stimulation by H and E staining assay; assay type: functional, organism-based; conditions: dose 50-100 mg/kg, time 7.0 day
[10] = tested on: Mus musculus; test: Antiinflammatory activity against MC093-induced atopic dermatitis BALB/c mouse model assessed as reduction in weight of ear at 50 to 100 mg/kg, IG administered starting from day 4 to 10 after MC093-stimulation; assay type: functional, organism-based; conditions: dose 50-100 mg/kg, time 7.0 day
[11] = tested on: Mus musculus; test: Antiinflammatory activity against MC093-induced atopic dermatitis BALB/c mouse model assessed as reduction in number of scratches at 50 to 100 mg/kg, IG administered starting from day 4 to 10 and measured after 30 mins of MC093-stimulation; assay type: functional, organism-based; conditions: dose 50-100 mg/kg, time 7.0 day
[12] = tested on: Mus musculus; test: Antiinflammatory activity against MC093-induced atopic dermatitis BALB/c mouse model assessed as reduction in scratching latency at 50 to 100 mg/kg, IG administered starting from day 4 to 10 and measured after 30 mins of MC093-stimulation; assay type: functional, organism-based; conditions: dose 50-100 mg/kg, time 7.0 day
[13] = tested on: Mus musculus; test: Antiinflammatory activity against MC093-induced atopic dermatitis BALB/c mouse model assessed as reduction in ear swelling at 50 to 100 mg/kg, IG administered starting from day 4 to 10 after MC093-stimulation; assay type: functional, organism-based; conditions: dose 50-100 mg/kg, time 7.0 day
[14] = tested on: Mus musculus; test: Antiinflammatory activity against MC093-induced atopic dermatitis BALB/c mouse model assessed as reduction in IgE level in serum at 50 to 100 mg/kg, IG administered starting from day 4 to 10 after MC093-stimulation; assay type: functional, organism-based; conditions: dose 50-100 mg/kg, time 7.0 day
[15] = tested on: Mus musculus; test: Antiinflammatory activity against MC093-induced atopic dermatitis BALB/c mouse model assessed as reduction in TSLP level in serum at 50 to 100 mg/kg, IG administered starting from day 4 to 10 after MC093-stimulation; assay type: functional, organism-based; conditions: dose 50-100 mg/kg, time 7.0 day
[16] = tested on: Mus musculus; test: Antiinflammatory activity against MC093-induced atopic dermatitis BALB/c mouse model assessed as reduction in IL-33 level in serum at 50 to 100 mg/kg, IG administered starting from day 4 to 10 after MC093-stimulation; assay type: functional, organism-based; conditions: dose 50-100 mg/kg, time 7.0 day
[17] = tested on: Mus musculus; test: Antiinflammatory activity against MC093-induced atopic dermatitis BALB/c mouse model assessed as reduction in IL-4 level in serum at 50 to 100 mg/kg, IG administered starting from day 4 to 10 after MC093-stimulation; assay type: functional, organism-based; conditions: dose 50-100 mg/kg, time 7.0 day
[18] = tested on: Mus musculus; test: Antiinflammatory activity against MC093-induced atopic dermatitis BALB/c mouse model assessed as reduction in IL-5 level in serum at 50 to 100 mg/kg, IG administered starting from day 4 to 10 after MC093-stimulation; assay type: functional, organism-based; conditions: dose 50-100 mg/kg, time 7.0 day
[19] = tested on: Mus musculus; test: Antiinflammatory activity against MC093-induced atopic dermatitis BALB/c mouse model assessed as reduction in IL-13 level in serum at 50 to 100 mg/kg, IG administered starting from day 4 to 10 after MC093-stimulation; assay type: functional, organism-based; conditions: dose 50-100 mg/kg, time 7.0 day
[20] = tested on: Mus musculus; test: Antiinflammatory activity against MC093-induced atopic dermatitis BALB/c mouse model assessed as reduction in HIS level in serum at 50 to 100 mg/kg, IG administered starting from day 4 to 10 after MC093-stimulation; assay type: functional, organism-based; conditions: dose 50-100 mg/kg, time 7.0 day
[21] = tested on: Mus musculus; test: In vivo inhibition of MAPK signalling pathway in MC093-induced atopic dermatitis BALB/c mouse model assessed as reduction in p-ERK/ERK ratio in ear skin at 50 to 100 mg/kg, IG administered starting from day 4 to 10 after MC093-stimulation by Western blot analysis; assay type: functional, organism-based; conditions: dose 50-100 mg/kg, time 7.0 day
[22] = tested on: Mus musculus; test: In vivo inhibition of MAPK signalling pathway in MC093-induced atopic dermatitis BALB/c mouse model assessed as reduction in p-JNK/JNK ratio in ear skin at 50 to 100 mg/kg, IG administered starting from day 4 to 10 after MC093-stimulation by Western blot analysis; assay type: functional, organism-based; conditions: dose 50-100 mg/kg, time 7.0 day
[23] = tested on: Mus musculus; test: In vivo inhibition of MAPK signalling pathway in MC093-induced atopic dermatitis BALB/c mouse model assessed as reduction in p-P38/P38 ratio in ear skin at 50 to 100 mg/kg, IG administered starting from day 4 to 10 after MC093-stimulation by Western blot analysis; assay type: functional, organism-based; conditions: dose 50-100 mg/kg, time 7.0 day
[24] = tested on: Mus musculus; test: In vivo inhibition of NFkappaB signalling pathway in IG dosed MC093-induced atopic dermatitis BALB/c mouse model assessed as reduction in IkappaB-alpha phosphorylation level in ear skin starting from day 4 to 10 after MC093-stimulation by Western blot analysis; assay type: functional, organism-based; conditions: dose 50-100 mg/kg, time 7.0 day
[25] = tested on: Mus musculus; test: In vivo inhibition of NFkappaB signalling pathway in IG dosed MC093-induced atopic dermatitis BALB/c mouse model assessed as reduction in P65 phosphorylation level in ear skin starting from day 4 to 10 after MC093-stimulation by Western blot analysis; assay type: functional, organism-based; conditions: dose 50-100 mg/kg, time 7.0 day
[26] = tested on: Mus musculus; test: In vivo inhibition of […] signalling pathway in MC093-induced atopic dermatitis BALB/c mouse model assessed as reduction in IkappaB-alpha phosphorylation level in ear skin at 50 to 100 mg/kg, IG administered starting from day 4 to 10 after MC093-stimulation by immunohistochemistry analysis; assay type: functional, organism-based; conditions: dose 50-100 mg/kg, time 7.0 day
[27] = tested on: Mus musculus; test: In vivo inhibition of […] signalling pathway in MC093-induced atopic dermatitis BALB/c mouse model assessed as reduction in P65 phosphorylation level in ear skin at 50 to 100 mg/kg, IG administered starting from day 4 to 10 after MC093-stimulation by immunohistochemistry analysis; assay type: functional, organism-based; conditions: dose 50-100 mg/kg, time 7.0 day

Compound: C=C1CC[C@H]2C(=C)CC[C@H]3C(CN(CCNS(=O)(=O)c4cccc(Cl)c4F)S(=O)(=O)c4cccc(Cl)c4F)C(=O)O[C@@H]3[C@@H]12 (some centres not stated)
- inhibition at 20 µM [1]: 48.1%
- cytotoxicity at 20 µM [2]: 1.67%

Compound: C=C1CC[C@H]2C(=C)CC[C@H]3C(CNCCNCc4cc(Cl)ccc4O)C(=O)O[C@@H]3[C@@H]12 (some centres not stated)
- inhibition at 20 µM [1]: 34.1%
- cytotoxicity at 20 µM [2]: 16.7%

Compound: C=C1CC[C@H]2C(=C)CC[C@H]3C(CNCCNCc4cc([N+](=O)[O-])ccc4O)C(=O)O[C@@H]3[C@@H]12 (some centres not stated)
- inhibition at 20 µM [1]: 68.4%
- cytotoxicity at 20 µM [2]: 24.7%
- IC50 [3]: 10.2 µM
- IC50 [4]: > 40 µM

The next lines start with results.

- IC50 [3]: 12.9 µM
Compound: C=C1CC[C@H]2C(=C)CC[C@H]3C(CN(CCNS(=O)(=O)c4cc(Cl)c(F)cc4F)S(=O)(=O)c4cc(Cl)c(F)cc4F)C(=O)O[C@@H]3[C@@H]12 (some centres not stated)
- inhibition at 20 µM [1]: 68.1%
- cytotoxicity at 20 µM [2]: 10.4%
- IC50 [4]: > 40 µM

- IC50 [3]: 16.6 µM
Compound: C=C1CC[C@H]2C(=C)CC[C@H]3C(CN(CCNS(=O)(=O)c4ccc5ccccc5c4)S(=O)(=O)c4ccc5ccccc5c4)C(=O)O[C@@H]3[C@@H]12 (some centres not stated)
- inhibition at 20 µM [1]: 76.8%
- cytotoxicity at 20 µM [2]: 8.58%
- IC50 [4]: > 40 µM

- IC50 [3]: 2.08 µM
- inhibition [5]: Dose-Dependent Effect
- inhibition [6]: Dose-Dependent Effect
- inhibition [7]: Dose-Dependent Effect
Compound: C=C1CC[C@H]2C(=C)CC[C@H]3C(CN(CCNS(=O)(=O)c4ccc(C(F)(F)F)cc4)S(=O)(=O)c4ccc(C(F)(F)F)cc4)C(=O)O[C@@H]3[C@@H]12 (some centres not stated)
- inhibition at 20 µM [1]: 85.1%
- cytotoxicity at 20 µM [2]: -6.84%
- IC50 [4]: > 40 µM
- Activity [8]: Active
- Activity [9]: Active
- Activity [10]: Active
- Activity [11]: Active
- Activity [12]: Active
- Activity [13]: Active
- Activity [14]: Active
- Activity [15]: Active
- Activity [16]: Active
- Activity [17]: Active
- Activity [18]: Active
- Activity [19]: Active
- Activity [20]: inactive
- inhibition [21]: inactive
- inhibition [22]: inactive
- inhibition [23]: inactive
- inhibition [24]: Dose-Dependent Effect
- inhibition [25]: Dose-Dependent Effect
- inhibition [26]: Active
- inhibition [27]: Active

- IC50 [3]: 6.31 µM
Compound: C=C1CC[C@H]2C(=C)CC[C@H]3C(CN(CCNS(=O)(=O)c4ccc(C(C)(C)C)cc4)S(=O)(=O)c4ccc(C(C)(C)C)cc4)C(=O)O[C@@H]3[C@@H]12 (some centres not stated)
- inhibition at 20 µM [1]: 81.2%
- cytotoxicity at 20 µM [2]: 9.88%
- IC50 [4]: > 40 µM
